Reference: EP3498298A1, “THE USE OF SGC STIMULATORS AND SGC ACTIVATORS ALONE OR IN COMBINATION WITH PDE5 INHIBITORS FOR THE TREATMENT OF BONE DISORDERS INCLUDING OSTEOGENESIS IMPERFECTA (OI)” (Bayer AG, priority 2017, dated 2019)

Assays:
[1] = test system: B6C3Fe a/a-Col1a2 oim /J (OI mice) termed as HOM; assay: 16 week chronic treatment study, micro-CT of femora (bone morphology and architecture) in OI mice; assay type: in vivo; conditions: 300 ppm (300mg/kg chow), 16 weeks; treated female HOM mice compared to untreated female HOM mice; P < 0.05
Description: (§1) Preferentially mice were used, especially transgenic mice (B6C3Fe a/a-Col1a2 oim /J (Jackson Laboratories)) (Chipman et al. 1993, McBride et al. 1998). These so called OI-mice (OIM, also called HOM mice) carry a mutation in the collagen gen (Col1a2) which reflects the phenotype and clinical situation of patients with […] OI. For the treatment homozygous OIM are used and compared with WT mice which serve as control.
(§2) As read-outs were preferentially used: • semiquantitative RT/PCR (TaqMan PCR) to assess gene expression according to standard procedures • histopathology to assess bone morphology according to standard procedures • high-resolution micro-CTscanner (µCT 35; Scanco Medical AG, Briittisellen, Switzerland) to evaluate bone morphology and architecture (Micro-CT) • three-point bending test to assess mechanical properties of the femora (Mechanical testing)
(§3) A high-resolution micro-CTscanner (µCT 35; Scanco Medical AG, Briittisellen, Switzerland) was used to evaluate bone morphology and architecture. […] The trabecular and cortical parameters were determined according to the guidelines for the assessment of bone microstructure with micro-CT (Bouxsein et al., 2010). […]

wild-type mice (WT) = assay: 16 week chronic treatment study, micro-CT of femora (bone morphology and architecture) in wild-type mice; assay type: in vivo; conditions: 300 ppm (300mg/kg chow), 16 weeks
Description: as §1, §2, §3

[2] = test system: ovariectomized female mice; conditions: intraperitoneally, 10µg/kg bolus dose; cited from earlier work
mice = conditions: cited from earlier work

For `Nc1nc(-c2nn(Cc3ccccc3F)c3ncccc23)ncc1C1CC1` [BAY 41-2272, 3-(4-amino-5-cyclopropylpyrimidin-2-yl)-1-(2-fluorobenzyl)-1H-pyrazolo[3,4-b]pyridine], the “trabecular number (Tb.N)” value [1] was “increased”, the “trabecular separation (Tb.Sp)” value [1] was “decreased” and the “structural properties of both trabecular and cortical bone” value (wild-type mice (WT)) was “no effect”.
For `O=C(O)CCCCN(CCc1ccccc1OCc1ccc(CCc2ccccc2)cc1)Cc1ccc(C(=O)O)cc1` [cinaciguat], the bone density [2] is listed as “could increase bone density”.
For `CCCc1nn(C)c2c(=O)[nH]c(-c3cc(S(=O)(=O)N4CCN(C)CC4)ccc3OCC)nc12` [sildenafil, 3-[2-ethoxy-5-(4-methylpiperazin-1-yl)sulfonyl-phenyl]-7-methy1-9-propy1-2,4,7,8-tetrazabicyclo [4.3.0]nona-3,8,10-trien-5-one], the fracture healing (mice) is listed as “accelerates fracture healing”.
